Values of other authors as cited in PMC12256174, “Next-Generation Oral Delivery Systems: Phytosomal Hinokitiol Tablets via REGEMAT 3D Bioprinter-Based 3D Printing for Enhanced Bioavailability” (Scientifica, 2025).
Converted amounts (≈) assume the structure as drawn.

CC(C)c1cccc(=O)c(O)c1 [Hinokitiol]
aqueous solubility: 1120 ± 20 µg/mL (≈ 6.82 mM)
